Counter-ions that a name gives are not always drawn. Where only a bound is given, the exact number is not on record here.

As usually defined, the CC50 is the concentration giving 50% cytotoxicity. A low value points to greater toxicity to the cells.

The nature of the first data set: in vitro. Particulars: rat, gh3-tre-luc cells, AC50 (uM) modified / 1000.
In turn, `CC(C)(CO)[C@@H](O)C(=O)NCCCC(=O)O` [Calcium hopantenate] had a CC50 at 24 h of more than 50 µM.

For `CC(O)C(=O)O` (centres unmarked) [Calcium lactate], the CC50 at 24 h is more than 90 µM. Consider `CCCCCCC(C)(C)C(=O)O` [Calcium neodecanoate], for which the CC50 at 24 h was more than 90 µM. `CC(C)(CO)[C@@H](O)C(=O)NCCC(=O)O` [Calcium pantothenate] displayed a CC50 at 24 h of more than 50 µM. The same measure, in the same setting: under `CC(C)OC(=O)Nc1ccc2[nH]c(-c3cscn3)nc2c1` [Cambendazole] stands 4.4 µM; under `CN(C)C(=O)COC(=O)Cc1ccc(OC(=O)c2ccc(NC(=N)N)cc2)cc1` [Camostat mesylate], more than 50 µM. `C=C1[C@@H]2CC[C@@H](C2)C1(C)C` [Camphene] yielded a CC50 at 24 h of more than 90 µM. The same measure, in the same setting: the figure for `CC1(C)[C@H]2CC[C@]1(C)C(=O)C2` [Camphor] is more than 90 µM; for `CCN(CC)CCNC(C(=O)OCCC(C)C)c1ccccc1` (centres unmarked) [Camylofin] it is more than 50 µM. Regarding `COc1ccc2c(c1OC)CN1CCc3cc4c(cc3[C@@H]1C2)OCO4` [Canadine], the CC50 at 24 h is more than 20 µM. On the same count and under the same terms, under `CCOc1nc2cccc(C(=O)OC(C)OC(=O)OC3CCCCC3)c2n1Cc1ccc(-c2ccccc2-c2nnn[nH]2)cc1` (centres unmarked) [Candesartan cilexetil] stands 31.1 µM; under `CCOc1nc2cccc(C(=O)O)c2n1Cc1ccc(-c2ccccc2-c2nnn[nH]2)cc1` [Candesartan], 34.4 µM.

`COCCOC[C@H](CC1(C(=O)N[C@H]2CC[C@@H](C(=O)O)CC2)CCCC1)C(=O)Oc1ccc2c(c1)CCC2` [Candoxatril] displayed a CC50 at 24 h of more than 90 µM. The same measure, in the same setting: the figure for `C=CC(=O)Nc1cc2c(Nc3ccc(F)c(Cl)c3)ncnc2cc1OCCCN1CCOCC1` [Canertinib] is 4.7 µM; for `C[C@]12CCC(=O)C=C1C=C[C@@H]1[C@@H]2CC[C@@]2(C)[C@H]1CC[C@@]2(O)CCC(=O)O` [Canrenoate potassium] it is more than 20 µM; for `C[C@]12CCC(=O)C=C1C=C[C@@H]1[C@@H]2CC[C@@]2(C)[C@H]1CC[C@@]21CCC(=O)O1` [Canrenone] it is more than 50 µM. Same read-out and setting: under `C[C@@]12C(=O)OC(=O)[C@]1(C)[C@H]1CC[C@@H]2O1` [Cantharidin] stands 2.01 µM. The same measure, in the same setting: the figure for `CC1=C(/C=C/C(C)=C/C=C/C(C)=C/C=C/C=C(C)/C=C/C=C(C)/C=C/C2=C(C)C(=O)CCC2(C)C)C(C)(C)CCC1=O` [Canthaxanthin] is more than 50 µM; for `CCCCCOC(=O)Nc1nc(=O)n([C@@H]2O[C@H](C)[C@@H](O)[C@H]2O)cc1F` [Capecitabine] it is more than 50 µM. Compound `COc1cc(C(=O)NCCCCCC(=O)O)cc(OC)c1OC` [Capobenic acid] returned a CC50 at 24 h of more than 50 µM. Same read-out and setting: the figure for `O=C1CCCCCN1` [Caprolactam] is more than 90 µM.

For the compound `O=C1CCCCCO1` [Caprolactone], the CC50 at 24 h was more than 90 µM. Still for that read-out and setting: under `CCCCCCCC(=O)Cl` [Caprylyl chloride] stands more than 90 µM; under `COc1cc(CNC(=O)CCCC/C=C/C(C)C)ccc1O` [Capsaicin], more than 90 µM.

Compound `C[C@H](CS)C(=O)N1CCC[C@H]1C(=O)O` [Captopril] gave a CC50 at 24 h of more than 50 µM. Still for that read-out and setting: under `CC(=O)c1ccc2c(c1)[C@H](NC(=O)c1ccc(F)cc1)[C@@H](O)C(C)(C)O2` [Carabersat] stands 51.8 µM; under `CCN(CC)CCOC(=O)C1(c2ccccc2)CCCC1` [Caramiphen edisylate], 43.2 µM; under `C[N+](C)(C)CCOC(N)=O` [Carbachol], more than 50 µM. `COC(=O)N/N=C/c1c[n+]([O-])c2ccccc2[n+]1[O-]` [Carbadox] came in with a CC50 at 24 h of more than 50 µM. On the same count and under the same terms, the figure for `NC(=O)N1c2ccccc2C=Cc2ccccc21` [Carbamazepine] is more than 90 µM; for `CNC(=O)Oc1cccc2ccccc12` [Carbaryl] it is more than 90 µM; for `CN1C2=CC(=O)/C(=N\NC(N)=O)C=C2CC1S(=O)(=O)O` (centres unmarked) [Carbazochrome sodium sulfonate] it is more than 50 µM.

`CN1CC(O)C2=C/C(=N/NC(N)=O)C(=O)C=C21` (centres unmarked) [Carbazochrome] gave a CC50 at 24 h of more than 50 µM. Compound `c1ccc2c(c1)[nH]c1ccccc12` [Carbazole] registered a CC50 at 24 h of more than 90 µM. The same measure, in the same setting: the figure for `CC1(C)S[C@@H]2[C@H](NC(=O)C(C(=O)O)c3ccccc3)C(=O)N2[C@H]1C(=O)O` (some centres unmarked) [Carbenicillin disodium] is more than 50 µM; for `CC1(C)S[C@@H]2[C@H](NC(=O)C(C(=O)Oc3ccc4c(c3)CCC4)c3ccccc3)C(=O)N2[C@H]1C(=O)O` (some centres unmarked) [Carbenicillin indanyl] it is more than 50 µM. Still for that read-out and setting: the figure for `CC1(C)[C@@H](OC(=O)CCC(=O)O)CC[C@]2(C)[C@H]3C(=O)C=C4[C@@H]5C[C@@](C)(C(=O)O)CC[C@]5(C)CC[C@@]4(C)[C@]3(C)CC[C@@H]12` [Carbenoxolone sodium] is more than 20 µM; for `CCNC(=O)[C@@H](C)OC(=O)Nc1ccccc1` [Carbetamide] it is more than 90 µM; for `CCN(CC)CCOCCOC(=O)C1(c2ccccc2)CCCC1` [Carbetapentane] it is more than 50 µM. Same read-out and setting: under `C[C@@](Cc1ccc(O)c(O)c1)(NN)C(=O)O` [Carbidopa] stands more than 50 µM. For `CN(C)CCOC(c1ccc(Cl)cc1)c1ccccn1` (centres unmarked) [Carbinoxamine maleate], the CC50 at 24 h was 23 µM. The same measure, in the same setting: the figure for `CCOC(=O)NC(O)C(Cl)(Cl)Cl` (centres unmarked) [Carbocloral] is more than 50 µM. Still for that read-out and setting: under `N[C@@H](CSCC(=O)O)C(=O)O` [Carbocysteine] stands more than 50 µM. The same measure, in the same setting: the figure for `CNC(=O)Oc1cccc2c1OC(C)(C)C2` [Carbofuran] is more than 90 µM; for `CO[C@@H]1[C@@H](O[C@@H]2O[C@H](C)[C@@H](O[C@H]3C[C@@](C)(O)[C@@H](OC(=O)CC(C)C)[C@H](C)O3)[C@H](N(C)C)[C@H]2O)[C@@H](CC=O)C[C@@H](C)C(=O)/C=C/[C@@H]2O[C@H]2C[C@@H](C)OC(=O)C[C@H]1OC(C)=O` [Carbomycin A] it is 34.1 µM. `S=C=S` [Carbon disulfide] showed a CC50 at 24 h of more than 90 µM. Take `ClC(Cl)(Cl)Cl` [Carbon tetrachloride]: the CC50 at 24 h is more than 90 µM. The same measure, in the same setting: under `N#CC(C#N)=NNc1cccc(Cl)c1` [Carbonyl cyanide chlorophenylhydrazone] stands 1.97 µM. Still for that read-out and setting: under `COC(COC(N)=O)C1=C(N2CC2)C(=O)C(C)=C(N2CC2)C1=O` (centres unmarked) [Carboquone] stands 0.556 µM. The same measure, in the same setting: under `CC1=C(C(=O)Nc2ccccc2)SCCO1` [Carboxin] stands more than 90 µM; under `CCCCNC(=O)NS(=O)(=O)c1ccc(N)cc1` [Carbutamide], more than 90 µM; under `CC(C)c1ccc(C(=O)NC(=N)N)cc1S(C)(=O)=O` [Cariporide mesylate], more than 70 µM. Compound `CCCCCCNC(=O)n1cc(F)c(=O)[nH]c1=O` [Carmofur] yielded a CC50 at 24 h of 8.69 µM. Same read-out and setting: under `O=C(O)c1ccc2[nH]cc(CCCCN3CC=C(c4ccccc4)CC3)c2c1` [Carmoxirole] stands more than 50 µM; under `O=NN(CCCl)C(=O)NCCCl` [Carmustine], more than 50 µM.

With `C[N+](C)(C)CC(O)CC(=O)[O-]` (centres unmarked) [Carnitine hydrochloride], the CC50 at 24 h was more than 50 µM. Same read-out and setting: under `CCN(CC)CCn1c(=O)c(Cc2ccc(OC)cc2)nc2ccccc21` [Caroverine hydrochloride] stands 19.1 µM; under `CCC(=O)c1ccc2c(c1)N(CCCN1CCN(CCO)CC1)c1ccccc1S2` [Carphenazine dimaleate], 6.82 µM.

`CC(C(=O)O)c1ccc2c(c1)[nH]c1ccc(Cl)cc12` (centres unmarked) [Carprofen] registered a CC50 at 24 h of more than 50 µM. On the same count and under the same terms, the figure for `COC(=O)CCC[N+](C)(C)C` [Carpronium chloride] is more than 50 µM; for `O=c1[nH]c(=O)c2ccccc2o1` [Carsalam] it is more than 50 µM. `CC(C)(C)NCC(O)COc1cccc2c1CCC(=O)N2` (centres unmarked) [Carteolol hydrochloride] returned a CC50 at 24 h of more than 20 µM. On the same count and under the same terms, the figure for `NC(=O)OC[C@@H]1[C@H](NC(=O)/C(=N\OCC(=O)O)c2csc(N)n2)C(=O)N1S(=O)(=O)O` [Carumonam sodium] is more than 50 µM; for `COc1ccccc1OCCNCC(O)COc1cccc2[nH]c3ccccc3c12` (centres unmarked) [Carvedilol tartrate] it is 24 µM; for `C=C(C)C1CC=C(C)[C@@H](O)C1` (some centres unmarked) [Carveol] it is more than 90 µM.

The data set is the same for the next values; noted with them: rat, gh3-tre-luc cells, AC50 (uM) modified / 1000, Tox21_110001=Tox21_110122; viability, 1 nM T3 present, 24 h.
The compound `CCCC(C)(COC(N)=O)COC(=O)NC(C)C` (centres unmarked) [Carisoprodol] had a CC50 at 24 h of more than 50 µM.

The data set is the same for the next values; noted with them: rat, gh3-tre-luc cells, AC50 (uM) modified / 1000, Tox21_110001=Tox21_113359; viability, 1 nM T3 present, 24 h.
For the compound `CCOP(=S)(OCC)SCSc1ccc(Cl)cc1` [Carbophenothion], the CC50 at 24 h is more than 50 µM.

The data set is the same for the next values; noted with them: rat, gh3-tre-luc cells, AC50 (uM) modified / 1000, Tox21_110001=Tox21_113486; viability, 1 nM T3 present, 24 h.
With `CCCCCc1cc(O)c2c(c1)OC(C)(C)c1ccc(C)cc1-2` [Cannabinol], the CC50 at 24 h was determined as 13.4 µM.

The same data set, now with this note: rat, gh3-tre-luc cells, AC50 (uM) modified / 1000, Tox21_110001=Tox21_200623; viability, 1 nM T3 present, 24 h.
As to `CCCC(C)(COC(N)=O)COC(=O)NC(C)C` (centres unmarked) [Carisoprodol], the CC50 at 24 h was more than 90 µM.

Still in this data set, the particulars now being: rat, gh3-tre-luc cells, AC50 (uM) modified / 1000, Tox21_110001=Tox21_202336; viability, 1 nM T3 present, 24 h.
The compound `CCCCN(CCCC)SN(C)C(=O)Oc1cccc2c1OC(C)(C)C2` [Carbosulfan] came in with a CC50 at 24 h of more than 90 µM.

The same data set, now with this note: rat, gh3-tre-luc cells, AC50 (uM) modified / 1000, Tox21_110001=Tox21_300473; viability, 1 nM T3 present, 24 h.
As for `CCCCN(CCCC)SN(C)C(=O)Oc1cccc2c1OC(C)(C)C2` [Carbosulfan], the CC50 at 24 h amounted to 24.2 µM.

The data set is the same for the next values; noted with them: rat, gh3-tre-luc cells, AC50 (uM) modified / 1000, Tox21_110001=Tox21_300994; viability, 1 nM T3 present, 24 h.
For `CCOC(=O)C(Cl)Cc1cc(-n2nc(C)n(C(F)F)c2=O)c(F)cc1Cl` (centres unmarked) [Carfentrazone-ethyl], the CC50 at 24 h was more than 90 µM.

The data set is the same for the next values; noted with them: rat, gh3-tre-luc cells, AC50 (uM) modified / 1000, Tox21_110001=Tox21_301426; viability, 1 nM T3 present, 24 h.
As for `CCOP(=S)(OCC)SCSc1ccc(Cl)cc1` [Carbophenothion], the CC50 at 24 h is more than 90 µM.

Still in this data set, the particulars now being: rat, gh3-tre-luc cells, AC50 (uM) modified / 1000, Tox21_110001=Tox21_302247; viability, 1 nM T3 present, 24 h.
On to `CCC(Br)(CC)C(=O)NC(N)=O` [Carbromal], for which the CC50 at 24 h was more than 90 µM.

These data come from publication PMC6792352, “Limited Chemical Structural Diversity Found to Modulate Thyroid Hormone Receptor in the Tox21 Chemical Library” (Environmental Health Perspectives, 2019).
